Results published in patent US7718385B2, “Bioactivation of alkylating agents for cancer treatment” (priority 2003, dated 2010).

Assays:
NCI-H322M = conditions: cited from earlier work
recombinant AOR = target: T1, recombinant AOR (Rattus norvegicus, UniProt P97584, Q160G/Q263G/Q264G/Q276G); assay: LC/MS/MS of enzymatic and nonenzymatic GSH adducts; assay type: biochemical; conditions: incubations with AOR, GSH and NADPH, 1 h, 37° C.
T1 construct: made in house
Method: High Performance Liquid Chromatography with Tandem Mass Spectrometry (LC/MS/MS) of GSA Adducts. […] These reactions were incubated at 37° C. for 1 h. Controls lacking NAFPH were performed. Reactions were stopped and deproteinized with addition of 400 μl of ice-cold acetonitrile, spun at 3500×g for 10 min at 4° C., and the supernatants were evaporated to dryness under vacuum. Residual GSH and NADPH cofactors were removed using an Oasis C18 sample prep column (Waters Chromatography). Adducts were eluted with methanol, evaporated to dryness under vacuum, resuspended in […] of 0.1% acetic acid, and detected using liquid chromatography electrospray ionization tandem mass spectrometry performed in the positive ion mode. […] A flow rate of 0.1 ml/min and gradient of 0% buffer D (70% acetic acid (0.1%):30% acetonitrile) to 100% buffer E (20% acetic acid (0.1%):80% acetonitrile) over 30 min were used to resolve the compounds. Adducts were detected by monitoring for selected molecular ions or characteristic molecular fragments after MS/MS. Molecular fragments were obtained with 35% relative collusion energy.
Measuring GSH adduction is a commonly used technique for estimating covalent protein binding, and thus cytotoxicity, of a drug (Baillie and Kassahun, 2001). The nucleophilic thiol moiety of GSH effectively scavenges electrophilic molecules and its large size and charge prevent it from entering the active site of most enzymes. […] Daughter ions of adducts, which represent the loss of water (−18 m/z) or […] (−129 m/z), were common and monitored for in these experiments following MS/MS.
Enzymatic reduction occurred in incubations containing recombinant AOR, NADPH, and GSH, while companion nonenzymatic reductions lacked NADPH. […] However the NE irofulven-GSH adduct (FIG. 5B) was detected only after monitoring for a daughter ion (M+—H2)=536 m/z) and was 42-fold less abundant than the E adduct. […] Contrary to findings with irofulven, a great deal of NE illudin M-GSH adduct was detected in NADPH-deficient incubations.

A498 = conditions: A498, Renal, cited from earlier work
OVCAR-3 = conditions: OVCAR-3, Ovarian, cited from earlier work
SNB-19 = conditions: SNB-19, Central Nervous System, cited from earlier work
NCI-H23 = conditions: NCI-H23, Non-Small Cell Lung, cited from earlier work
ACHN = conditions: Renal; cited from earlier work
SR = conditions: cited from earlier work
NCI/ADR-RES = conditions: cited from earlier work
SW-620 = conditions: SW-620, Colon, cited from earlier work
MCF7 = conditions: MCF7, Breast, cited from earlier work
HOP-92 = conditions: HOP-92, Non-Small Cell Lung, cited from earlier work
M14 = conditions: M14, Melanoma, cited from earlier work
SN12C = conditions: cited from earlier work

T1 sequence (P97584 whole entry Q160G/Q263G/Q264G/Q276G): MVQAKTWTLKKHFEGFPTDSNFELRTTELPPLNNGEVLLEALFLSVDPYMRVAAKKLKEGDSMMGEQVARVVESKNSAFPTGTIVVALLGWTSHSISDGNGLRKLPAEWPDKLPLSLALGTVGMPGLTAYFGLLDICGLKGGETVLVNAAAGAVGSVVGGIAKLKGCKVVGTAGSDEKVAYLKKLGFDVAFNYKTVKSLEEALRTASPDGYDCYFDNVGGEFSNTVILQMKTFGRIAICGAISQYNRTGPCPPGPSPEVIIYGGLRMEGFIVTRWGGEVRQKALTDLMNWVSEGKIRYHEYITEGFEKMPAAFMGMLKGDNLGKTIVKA

In the case of CC1=C(CO)C2=C(C)C3(CC3)[C@@](C)(O)C(=O)C2=C1 [Irofulven, 6-hydroxymethylacylfulvene], the GI50 (NCI-H322M; Non-Small Cell Lung) is given as 251 nM, the TGI (NCI-H322M; Non-Small Cell Lung) is given as 6.31E−07 and the “log(GI50)” value (NCI-H322M; Non-Small Cell Lung) is given as −6.6. For the same molecule, the “log(LC50)” value (NCI-H322M; Non-Small Cell Lung) was −4.9, the “log(TGI)” value (NCI-H322M; Non-Small Cell Lung) was −6.2 and the CC50 (NCI-H322M; read-out: LC50, Non-Small Cell Lung) was 12600 nM. The “abundance of E (enzymatic) GSH adduct over NE (nonenzymatic) adduct” value (recombinant AOR) was 42 fold, the GI50 (A498) was 200 nM and the TGI (A498) was 5.01E−07. For the same molecule, the “log(GI50)” value (A498) was −6.7, the “log(LC50)” value (A498) was −5.7 and the “log(TGI)” value (A498) was −6.3. The CC50 (A498; read-out: LC50) was 2000 nM, the GI50 (OVCAR-3) was 251 nM and the TGI (OVCAR-3) was 6.31E−07. For the same molecule, the “log(GI50)” value (OVCAR-3) was −6.6, the “log(TGI)” value (OVCAR-3) was −6.2 and the CC50 (OVCAR-3; read-out: LC50) was at least 100000 nM. The GI50 (SNB-19) was 316 nM, the TGI (SNB-19) was 1.00E−05 and the “log(GI50)” value (SNB-19) was −6.5. For the same molecule, the “log(LC50)” value (SNB-19) was −4.2, the “log(TGI)” value (SNB-19) was −5 and the CC50 (SNB-19; read-out: LC50) was 63100 nM. The GI50 (NCI-H23) was 79.4 nM, the TGI (NCI-H23) was 3.16E−07 and the “log(GI50)” value (NCI-H23) was −7.1. For the same molecule, the “log(LC50)” value (NCI-H23) was −6.1, the “log(TGI)” value (NCI-H23) was −6.5 and the CC50 (NCI-H23; read-out: LC50) was 794 nM. For the same molecule, the GI50 (ACHN) was 251 nM, the TGI (ACHN) was 1.00E−06 and the “log(GI50)” value (ACHN) was −6.6. The “log(TGI)” value (ACHN) was −6, the GI50 (SR; Leukemia) was 794 nM and the TGI (SR; Leukemia) was 1.00E−04. The “log(GI50)” value (SR; Leukemia) was −6.1, the “log(TGI)” value (SR; Leukemia) was −4 and the CC50 (SR; read-out: LC50, Leukemia) was at least 100000 nM. For the same molecule, the GI50 (NCI/ADR-RES; Breast) was 251 nM, the TGI (NCI/ADR-RES; Breast) was 7.94E−07 and the “log(GI50)” value (NCI/ADR-RES; Breast) was −6.6. For the same molecule, the “log(LC50)” value (NCI/ADR-RES; Breast) was −5.3, the “log(TGI)” value (NCI/ADR-RES; Breast) was −6.1 and the CC50 (NCI/ADR-RES; read-out: LC50, Breast) was 5010 nM. The GI50 (SW-620) was 631 nM, the TGI (SW-620) was 3.16E−05 and the “log(GI50)” value (SW-620) was −6.2. For the same molecule, the “log(TGI)” value (SW-620) was −4.5, the CC50 (SW-620; read-out: LC50) was at least 100000 nM and the GI50 (MCF7) was 251 nM. For the same molecule, the TGI (MCF7) was 2.00E−06, the “log(GI50)” value (MCF7) was −6.6 and the “log(TGI)” value (MCF7) was −5.7. The CC50 (MCF7; read-out: LC50) was at least 100000 nM, the GI50 (HOP-92) was 316 nM and the TGI (HOP-92) was 6.31E−07. For the same molecule, the “log(GI50)” value (HOP-92) was −6.5, the “log(LC50)” value (HOP-92) was −4.6 and the “log(TGI)” value (HOP-92) was −6.2. For the same molecule, the CC50 (HOP-92; read-out: LC50) was 25100 nM, the GI50 (M14) was 251 nM and the TGI (M14) was 6.31E−07. The “log(GI50)” value (M14) was −6.6, the “log(LC50)” value (M14) was −5.7 and the “log(TGI)” value (M14) was −6.2. For the same molecule, the CC50 (M14; read-out: LC50) was 2000 nM, the GI50 (SN12C; Renal) was 398 nM and the TGI (SN12C; Renal) was 5.01E−06. For the same molecule, the “log(GI50)” value (SN12C; Renal) was −6.4, the “log(LC50)” value (SN12C; Renal) was −4.3 and the “log(TGI)” value (SN12C; Renal) was −5.3. For the same molecule, the CC50 (SN12C; read-out: LC50, Renal) was 50100 nM.
